Assay results taken from PubChem BioAssay (NCI).
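A five-concentration, 48-hour dose response in 96-well plates underlies each endpoint, interpolated linearly between surrounding concentrations. TGI is the concentration that stops growth completely.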

Tests used:
Assay in all cases: NCI tumour cell line growth inhibition, 48 h
[1] = test system: SK-MEL-28 melanoma
[2] = test system: MALME-3M melanoma
[3] = test system: CAKI-1 renal
[4] = test system: U251 CNS
[5] = test system: BT-549 breast
[6] = test system: SR leukemia
[7] = test system: MOLT-4 leukemia
[8] = test system: HOP-92 NSCLC
[9] = test system: NCI-H23 lung
[10] = test system: EKVX NSCLC
[11] = test system: DU-145 prostate
[12] = test system: NCI-H522 lung
[13] = test system: SNB-75 CNS
[14] = test system: A549 NSCLC
[15] = test system: UO-31 renal
[16] = test system: PC-3 prostate
[17] = test system: UACC-257 melanoma
[18] = test system: OVCAR-4 ovarian
[19] = test system: MDA-MB-435
[20] = test system: HT29 colon
[21] = test system: K-562 leukemia
[22] = test system: RXF 393 renal
[23] = test system: HCC-2998 colon
[24] = test system: UACC-62 melanoma
[25] = test system: SNB-19 CNS
[26] = test system: SF-539 CNS
[27] = test system: KM12 colon
[28] = test system: M14 melanoma
[29] = test system: TK-10 renal
[30] = test system: T-47D breast
[31] = test system: HCT-15 colon
[32] = test system: HCT-116 colon
[33] = test system: OVCAR-8 ovarian
[34] = test system: SW-620 colon
[35] = test system: MDA-MB-231 breast
[36] = test system: 786-0 renal
[37] = test system: SF-295 CNS
[38] = test system: NCI-H226 lung
[39] = test system: CCRF-CEM leukemia
[40] = test system: OVCAR-3 ovarian
[41] = test system: SK-OV-3 ovarian
[42] = test system: HL-60(TB) leukemia
[43] = test system: SK-MEL-2 melanoma
[44] = test system: MDA-N
[45] = test system: MCF7 breast
[46] = test system: IGROV1 ovarian
[47] = test system: NCI-H460 lung
[48] = test system: NCI/ADR-RES ovarian
[49] = test system: SN12C renal
[50] = test system: SK-MEL-5 melanoma
[51] = test system: OVCAR-5 ovarian
[52] = test system: COLO 205 colon
[53] = test system: ACHN renal
[54] = test system: LOX IMVI melanoma
[55] = test system: A498 renal
[56] = test system: RPMI-8226 leukemia
[57] = test system: SF-268 CNS
[58] = test system: HOP-62 NSCLC

COc1ccc(N[C@H]([C@@H](c2ccccc2)S(=O)c2ccc(C)cc2)C(F)(F)F)cc1 (stereo partly specified)
TGI [1]: > 100 µM
TGI [2]: > 100 µM
TGI [3]: > 100 µM
TGI [4]: 50.2 µM
TGI [5]: > 100 µM
TGI [6]: > 100 µM
TGI [7]: > 100 µM
TGI [8]: > 100 µM
TGI [9]: > 100 µM
TGI [10]: > 100 µM
TGI [11]: > 100 µM
TGI [12]: > 100 µM
TGI [13]: > 100 µM
TGI [14]: > 100 µM
TGI [15]: > 100 µM
TGI [16]: > 100 µM
TGI [17]: > 100 µM
TGI [18]: 79.5 µM
TGI [19]: > 100 µM
TGI [20]: > 100 µM
TGI [21]: > 100 µM
TGI [22]: > 100 µM
TGI [23]: > 100 µM
TGI [24]: > 100 µM
TGI [25]: > 100 µM
TGI [26]: 63.2 µM
TGI [27]: > 100 µM
TGI [28]: > 100 µM
TGI [29]: > 100 µM
TGI [30]: > 100 µM
TGI [31]: > 100 µM
TGI [32]: > 100 µM
TGI [33]: > 100 µM
TGI [34]: > 100 µM
TGI [35]: > 100 µM
TGI [36]: > 100 µM
TGI [37]: > 100 µM
TGI [38]: > 100 µM
TGI [39]: 66.6 µM
TGI [40]: > 100 µM
TGI [41]: > 100 µM
TGI [42]: 73.7 µM
TGI [43]: > 100 µM
TGI [44]: > 100 µM
TGI [45]: > 100 µM
TGI [46]: > 100 µM
TGI [47]: > 100 µM
TGI [48]: > 100 µM
TGI [49]: > 100 µM
TGI [50]: > 100 µM
TGI [51]: > 100 µM
TGI [52]: > 100 µM
TGI [53]: > 100 µM
TGI [54]: > 100 µM

CC(C)(C)OC/C=C(\Br)CO
TGI [1]: > 100 µM
TGI [2]: > 100 µM
TGI [3]: > 100 µM
TGI [4]: > 100 µM
TGI [5]: > 100 µM
TGI [7]: > 100 µM
TGI [9]: > 100 µM
TGI [10]: > 100 µM
TGI [11]: > 100 µM
TGI [13]: > 100 µM
TGI [14]: > 100 µM
TGI [15]: > 100 µM
TGI [16]: > 100 µM
TGI [17]: > 100 µM
TGI [18]: > 100 µM
TGI [19]: > 100 µM
TGI [20]: > 100 µM
TGI [21]: > 100 µM
TGI [22]: > 100 µM
TGI [23]: > 100 µM
TGI [24]: > 100 µM
TGI [25]: > 100 µM
TGI [26]: > 100 µM
TGI [27]: > 100 µM
TGI [28]: > 100 µM
TGI [30]: > 100 µM
TGI [31]: > 100 µM
TGI [55]: > 100 µM
TGI [32]: > 100 µM
TGI [33]: > 100 µM
TGI [34]: > 100 µM
TGI [35]: > 100 µM
TGI [36]: > 100 µM
TGI [37]: > 100 µM
TGI [38]: > 100 µM
TGI [39]: > 100 µM
TGI [40]: > 100 µM
TGI [41]: > 100 µM
TGI [56]: > 100 µM
TGI [43]: > 100 µM
TGI [44]: > 100 µM
TGI [45]: > 100 µM
TGI [47]: > 100 µM
TGI [48]: > 100 µM
TGI [49]: > 100 µM
TGI [51]: > 100 µM
TGI [57]: > 100 µM
TGI [52]: > 100 µM
TGI [53]: > 100 µM
TGI [58]: > 100 µM

C#CCCCC(=C)C[C@@H]1OC(=O)[C@H](C)[C@@H]1O
TGI [1]: > 100 µM
TGI [3]: > 100 µM
TGI [4]: > 100 µM
TGI [7]: > 100 µM
TGI [8]: > 100 µM
TGI [9]: > 100 µM
TGI [10]: > 100 µM
TGI [11]: > 100 µM
TGI [13]: > 100 µM
TGI [14]: > 100 µM
TGI [15]: > 100 µM
TGI [16]: > 100 µM
TGI [18]: > 100 µM
TGI [19]: > 100 µM
TGI [21]: > 100 µM
TGI [22]: > 100 µM
TGI [23]: > 100 µM
TGI [25]: > 100 µM
TGI [27]: > 100 µM
TGI [28]: > 100 µM
TGI [30]: > 100 µM
TGI [31]: > 100 µM
TGI [55]: > 100 µM
TGI [32]: > 100 µM
TGI [34]: > 100 µM
TGI [36]: > 100 µM
TGI [37]: > 100 µM
TGI [39]: > 100 µM
TGI [40]: > 100 µM
TGI [41]: > 100 µM
TGI [56]: > 100 µM
TGI [42]: > 100 µM
TGI [43]: > 100 µM
TGI [44]: > 100 µM
TGI [45]: > 100 µM
TGI [47]: > 100 µM
TGI [48]: > 100 µM
TGI [49]: > 100 µM
TGI [50]: > 100 µM
TGI [51]: > 100 µM
TGI [52]: > 100 µM
TGI [53]: > 100 µM
TGI [58]: > 100 µM
TGI [54]: > 100 µM

CCCCN(CCCC)CC(O)c1cc(-c2ccc(Cl)c(Cl)c2)nc2c(Cl)cc(Cl)cc12 (stereo unspecified)
TGI [1]: > 100 µM
TGI [2]: > 100 µM
TGI [4]: > 100 µM
TGI [6]: > 100 µM
TGI [7]: > 100 µM
TGI [9]: > 100 µM
TGI [10]: > 100 µM
TGI [11]: > 100 µM
TGI [13]: > 100 µM
TGI [15]: > 100 µM
TGI [16]: > 100 µM
TGI [17]: > 100 µM
TGI [18]: > 100 µM
TGI [19]: > 100 µM
TGI [20]: > 100 µM
TGI [23]: > 100 µM
TGI [24]: > 100 µM
TGI [25]: > 100 µM
TGI [26]: > 100 µM
TGI [29]: > 100 µM
TGI [30]: > 100 µM
TGI [31]: > 100 µM
TGI [55]: > 100 µM
TGI [32]: > 100 µM
TGI [33]: > 100 µM
TGI [34]: 39.1 µM
TGI [35]: > 100 µM
TGI [36]: > 100 µM
TGI [37]: > 100 µM
TGI [39]: > 100 µM
TGI [40]: > 100 µM
TGI [41]: > 100 µM
TGI [56]: > 100 µM
TGI [42]: > 100 µM
TGI [43]: > 100 µM
TGI [44]: > 100 µM
TGI [45]: > 100 µM
TGI [46]: > 100 µM
TGI [47]: > 100 µM
TGI [48]: > 100 µM
TGI [49]: > 100 µM
TGI [51]: > 100 µM
TGI [57]: > 100 µM
TGI [52]: > 100 µM
TGI [53]: > 100 µM
TGI [58]: > 100 µM
TGI [54]: > 100 µM

CC(C)=CCC/C(C)=C/CCC(C(=O)COCc1ccccc1)P1(=O)OC(C)(C)CN1C(C)(C)C (stereo unspecified)
TGI [1]: > 100 µM
TGI [3]: > 100 µM
TGI [4]: > 100 µM
TGI [5]: > 100 µM
TGI [6]: 46.5 µM
TGI [7]: 38.6 µM
TGI [9]: > 100 µM
TGI [10]: > 100 µM
TGI [11]: > 100 µM
TGI [12]: > 100 µM
TGI [13]: > 100 µM
TGI [14]: > 100 µM
TGI [15]: > 100 µM
TGI [16]: > 100 µM
TGI [17]: > 100 µM
TGI [18]: 81.2 µM
TGI [19]: > 100 µM
TGI [20]: > 100 µM
TGI [21]: 73.9 µM
TGI [22]: > 100 µM
TGI [24]: > 100 µM
TGI [25]: > 100 µM
TGI [26]: > 100 µM
TGI [27]: > 100 µM
TGI [28]: > 100 µM
TGI [29]: > 100 µM
TGI [30]: > 100 µM
TGI [31]: > 100 µM
TGI [32]: > 100 µM
TGI [34]: > 100 µM
TGI [35]: > 100 µM
TGI [36]: > 100 µM
TGI [37]: > 100 µM
TGI [38]: > 100 µM
TGI [39]: 93.7 µM
TGI [40]: > 100 µM
TGI [41]: > 100 µM
TGI [43]: > 100 µM
TGI [44]: > 100 µM
TGI [45]: > 100 µM
TGI [46]: > 100 µM
TGI [47]: > 100 µM
TGI [48]: > 100 µM
TGI [49]: > 100 µM
TGI [50]: > 100 µM
TGI [51]: > 100 µM
TGI [57]: > 100 µM
TGI [52]: > 100 µM
TGI [53]: > 100 µM
TGI [58]: > 100 µM
TGI [54]: > 100 µM
